What was measured:
Format in all cases: cell-based
[1] = test system: Mino cells; assay: Antiproliferative effect, MTS cell viability assay, Mino cells; details: Homo sapiens, MINO, Mino mantle cell lymphoma cells; read-out: IC50 (anti-proliferation) Mino cells
How it was run: (§1)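 MTS read-out, A490 of formazan from metabolically active cells; compound 0–10 μM (0, 0.001, 0.01, 0.1, 1, 10 μM), 72 h exposure.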

[2] = target: BTK (Homo sapiens, UniProt Q06187); assay: BTK degradation, DC50 and Dmax of Table 1 (cell line not given); set-up: endogenous in cells; details: for DC50: concentration giving 50% reduction of BTK expression level
BTK, sequence (Q06187 whole entry): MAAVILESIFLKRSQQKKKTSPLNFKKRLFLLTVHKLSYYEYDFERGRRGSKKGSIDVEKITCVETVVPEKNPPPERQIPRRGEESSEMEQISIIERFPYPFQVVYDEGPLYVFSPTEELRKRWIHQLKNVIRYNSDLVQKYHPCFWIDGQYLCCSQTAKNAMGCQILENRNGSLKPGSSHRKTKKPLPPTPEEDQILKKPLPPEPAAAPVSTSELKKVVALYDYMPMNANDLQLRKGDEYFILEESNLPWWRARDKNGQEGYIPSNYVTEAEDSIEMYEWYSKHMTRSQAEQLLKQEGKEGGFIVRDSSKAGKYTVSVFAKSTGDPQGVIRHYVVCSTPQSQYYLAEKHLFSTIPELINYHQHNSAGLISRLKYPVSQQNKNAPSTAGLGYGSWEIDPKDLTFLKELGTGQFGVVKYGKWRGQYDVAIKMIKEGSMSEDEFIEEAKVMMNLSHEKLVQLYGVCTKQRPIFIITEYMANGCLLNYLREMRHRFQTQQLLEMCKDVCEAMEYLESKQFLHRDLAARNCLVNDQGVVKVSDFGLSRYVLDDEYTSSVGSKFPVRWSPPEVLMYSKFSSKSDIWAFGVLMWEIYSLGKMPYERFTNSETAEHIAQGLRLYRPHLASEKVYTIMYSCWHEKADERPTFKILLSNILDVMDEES

[3] = test system: JeKo-1 cells; assay: Antiproliferative effect, MTS cell viability assay, JeKo-1 cells; details: Homo sapiens; JeKo-1 mantle cell lymphoma cells; read-out: IC50 (anti-proliferation) JeKO-1 cells
How it was run: as §1

Structure (SMILES)	Dmax [2]	DC50 [2]	IC50 [1]	IC50 [3]
Nc1ncnc2c1c(-c1ccc(Oc3ccccc3)cc1)nn2[C@@H]1CCCN(CC2CCN(CCCN3CCC(c4ccc5c(c4)CN(C4CCC(=O)NC4=O)C5=O)CC3)CC2)C1 (stereo partly drawn) [Compound 140, 3-(5-(1-(3-(4-(((R)-3-(4-amino-3-(4-phenoxyphenyl)-1H-pyrazolo[3,4-d]pyrimidin-1-yl)piperidin-1-yl)methyl)piperidin-1-yl)propyl)piperidin-4-yl)-1-oxoisoindolin-2-yl)piperidine-2,6-dione]	> 75%	0.01 to 0.05 µM	1 to 10 µM	> 10 µM
Nc1ncnc2c1c(-c1ccc(Oc3ccccc3)cc1)nn2C1CCCN(CCOCCN2CCN(c3ccc4c(c3)C(=O)N(C3CCC(=O)NC3=O)C4=O)CC2)C1 (centres unmarked) [Compound 7, 5-(4-(2-(2-(3-(4-amino-3-(4-phenoxyphenyl)-1H-pyrazolo[3,4-d]pyrimidin-1-yl)piperidin-1-yl)ethoxy)ethyl)piperazin-1-yl)-2-(2,6-dioxopiperidin-3-yl)isoindoline-1,3-dione]	> 75%	0.01 to 0.05 µM	1 to 10 µM	1 to 10 µM
Nc1ncnc2c1c(-c1ccc(Oc3ccccc3)cc1)nn2[C@@H]1CCCN(C2CCN(C(=O)N3CCN(CCC4CCN(c5ccc6c(c5)C(=O)N(C5CCC(=O)NC5=O)C6=O)CC4)CC3)CC2)C1 (stereo partly drawn) [Compound 177, 5-(4-(2-(4-((R)-3-(4-amino-3-(4-phenoxyphenyl)-1H-pyrazolo[3,4-d]pyrimidin-1-yl)-[1,4′-bipiperidine]-1′-carbonyl)piperazin-1-yl)ethyl)piperidin-1-yl)-2-(2,6-dioxopiperidin-3-yl)isoindoline-1,3-dione]	> 90%	0.01 to 0.05 µM	1 to 10 µM	1 to 10 µM
Nc1ncnc2c1c(-c1ccc(Oc3ccccc3)cc1)nn2[C@@H]1CCCN(C2CCN(CCCN3CCC(c4ccc5c(c4)C(=O)N(C4CCC(=O)NC4=O)C5=O)CC3)CC2)C1 (stereo partly drawn) [Compound 153, 5-(1-(3-((R)-3-(4-amino-3-(4-phenoxyphenyl)-1H-pyrazolo[3,4-d]pyrimidin-1-yl)-[1,4′-bipiperidin]-1′-yl)propyl)piperidin-4-yl)-2-(2,6-dioxopiperidin-3-yl)isoindoline-1,3-dione]	> 75%	> 0.05 µM	> 10 µM	> 10 µM
Nc1ncnc2c1c(-c1ccc(Oc3ccccc3)cc1)nn2[C@@H]1CCCN(C2CCN(CC3CCN(c4ccc5c(c4)C(=O)N(C4CCC(=O)NC4=O)C5=O)CC3)CC2)C1 (stereo partly drawn) [Compound 143, 5-(4-(((R)-3-(4-amino-3-(4-phenoxyphenyl)-1H-pyrazolo[3,4-d]pyrimidin-1-yl)-[1,4′-bipiperidin]-1′-yl)methyl)piperidin-1-yl)-2-(2,6-dioxopiperidin-3-yl)isoindoline-1,3-dione]	> 90%	0.01 to 0.05 µM	> 10 µM	> 10 µM
Nc1ncnc2c1c(-c1ccc(Oc3ccccc3)cc1)nn2[C@@H]1CCCN(C(=O)N2CCN(CCC3CCN(c4ccc5c(c4)C(=O)N(C4CCC(=O)NC4=O)C5=O)CC3)CC2)C1 (stereo partly drawn) [Compound 67, 5-(4-(2-(4-((R)-3-(4-amino-3-(4-phenoxyphenyl)-1H-pyrazolo[3,4-d]pyrimidin-1-yl)piperidine-1-carbonyl)piperazin-1-yl)ethyl)piperidin-1-yl)-2-(2,6-dioxopiperidin-3-yl)isoindoline-1,3-dione]	> 90%	< 0.01 µM	1 to 10 µM	1 to 10 µM
Nc1ncnc2c1c(-c1ccc(Oc3ccccc3)cc1)nn2C1CCCN(CCOCCOCCN2CCN(c3ccc4c(c3)C(=O)N(C3CCC(=O)NC3=O)C4=O)CC2)C1 (centres unmarked) [Compound 3, 5-(4-(2-(2-(2-(3-(4-amino-3-(4-phenoxyphenyl)-1H-pyrazolo[3,4-d]pyrimidin-1-yl)piperidin-1-yl)ethoxy)ethoxy)ethyl)piperazin-1-yl)-2-(2,6-dioxopiperidin-3-yl)isoindoline-1,3-dione]	> 90%	< 0.01 µM	1 to 10 µM	1 to 10 µM

More lines, main results first:

Dmax [2]	DC50 [2]	Structure (SMILES)	IC50 [1]	IC50 [3]
> 50%	> 0.05 µM	Nc1ncnc2c1c(-c1ccc(Oc3ccccc3)cc1)nn2C1CCN(C(=O)N2CCN(c3ccc4c(c3)CN(C3CCC(=O)NC3=O)C4=O)CC2)CC1 (centres unmarked) [Compound 76, 3-(5-(4-(4-(4-amino-3-(4-phenoxyphenyl)-1H-pyrazolo[3,4-d]pyrimidin-1-yl)piperidine-1-carbonyl)piperazin-1-yl)-1-oxoisoindolin-2-yl)piperidine-2,6-dione]	> 10 µM	> 10 µM
> 90%	0.01 to 0.05 µM	Nc1ncnc2c1c(-c1ccc(Oc3ccccc3)cc1)nn2[C@@H]1CCCN(C2CCN(C(=O)N3CCC(CC4CCN(c5ccc6c(c5)CN(C5CCC(=O)NC5=O)C6=O)CC4)CC3)CC2)C1 (stereo partly drawn) [Compound 168, 3-(5-(4-((1-((R)-3-(4-amino-3-(4-phenoxyphenyl)-1H-pyrazolo[3,4-d]pyrimidin-1-yl)-[1,4′-bipiperidine]-1′-carbonyl)piperidin-4-yl)methyl)piperidin-1-yl)-1-oxoisoindolin-2-yl)piperidine-2,6-dione]	< 1 µM	1 to 10 µM
> 90%	> 0.05 µM	Nc1ncnc2c1c(-c1ccc(Oc3ccccc3)cc1)nn2C1CCN(C(=O)N2CCN(CCCN3CCC(c4ccc5c(c4)CN(C4CCC(=O)NC4=O)C5=O)CC3)CC2)CC1 (centres unmarked) [Compound 124, 3-(5-(1-(3-(4-(4-(4-amino-3-(4-phenoxyphenyl)-1H-pyrazolo[3,4-d]pyrimidin-1-yl)piperidine-1-carbonyl)piperazin-1-yl)propyl)piperidin-4-yl)-1-oxoisoindolin-2-yl)piperidine-2,6-dione]	> 10 µM	> 10 µM
> 90%	0.01 to 0.05 µM	Nc1ncnc2c1c(-c1ccc(Oc3ccccc3)cc1)nn2C1CCN(C(=O)N2CCN(CC3CCN(c4ccc5c(c4)CN(C4CCC(=O)NC4=O)C5=O)CC3)CC2)CC1 (centres unmarked) [Compound 88, 3-(5-(4-((4-(4-(4-amino-3-(4-phenoxyphenyl)-1H-pyrazolo[3,4-d]pyrimidin-1-yl)piperidine-1-carbonyl)piperazin-1-yl)methyl)piperidin-1-yl)-1-oxoisoindolin-2-yl)piperidine-2,6-dione]	< 1 µM	< 1 µM
> 90%	0.01 to 0.05 µM	Nc1ncnc2c1c(-c1ccc(Oc3ccccc3)cc1)nn2C1CCN(C(=O)N2CCN(CCC3CCN(c4ccc5c(c4)CN(C4CCC(=O)NC4=O)C5=O)CC3)CC2)CC1 (centres unmarked) [Compound 98, 3-(5-(4-(2-(4-(4-(4-amino-3-(4-phenoxyphenyl)-1H-pyrazolo[3,4-d]pyrimidin-1-yl)piperidine-1-carbonyl)piperazin-1-yl)ethyl)piperidin-1-yl)-1-oxoisoindolin-2-yl)piperidine-2,6-dione]	1 to 10 µM	1 to 10 µM
> 90%	> 0.05 µM	Nc1ncnc2c1c(-c1ccc(Oc3ccccc3)cc1)nn2C1CCN(C(=O)N2CCC(CCCC3CCN(c4ccc5c(c4)C(=O)N(C4CCC(=O)NC4=O)C5=O)CC3)CC2)CC1 (centres unmarked) [Compound 125, 5-(4-(3-(1-(4-(4-amino-3-(4-phenoxyphenyl)-1H-pyrazolo[3,4-d]pyrimidin-1-yl)piperidine-1-carbonyl)piperidin-4-yl)propyl)piperidin-1-yl)-2-(2,6-dioxopiperidin-3-yl)isoindoline-1,3-dione]	> 10 µM	1 to 10 µM
> 90%	< 0.01 µM	Nc1ncnc2c1c(-c1ccc(Oc3ccccc3)cc1)nn2[C@@H]1CCCN(C(=O)N2CCN(CCN3CCN(c4ccc5c(c4)C(=O)N(C4CCC(=O)NC4=O)C5=O)CC3)CC2)C1 (stereo partly drawn) [Compound 65, 5-(4-(2-(4-((R)-3-(4-amino-3-(4-phenoxyphenyl)-1H-pyrazolo[3,4-d]pyrimidin-1-yl)piperidine-1-carbonyl)piperazin-1-yl)ethyl)piperazin-1-yl)-2-(2,6-dioxopiperidin-3-yl)isoindoline-1,3-dione]	1 to 10 µM	1 to 10 µM
> 90%	< 0.01 µM	Nc1ncnc2c1c(-c1ccc(Oc3ccccc3)cc1)nn2C1CCCN(CCOCCOCCN2CCN(c3ccc4c(c3)CN(C3CCC(=O)NC3=O)C4=O)CC2)C1 (centres unmarked) [Compound 4, 3-(5-(4-(2-(2-(2-(3-(4-amino-3-(4-phenoxyphenyl)-1H-pyrazolo[3,4-d]pyrimidin-1-yl)piperidin-1-yl)ethoxy)ethoxy)ethyl)piperazin-1-yl)-1-oxoisoindolin-2-yl)piperidine-2,6-dione]	1 to 10 µM	1 to 10 µM
> 90%	0.01 to 0.05 µM	Nc1ncnc2c1c(-c1ccc(Oc3ccccc3)cc1)nn2C1CCN(C(=O)N2CCC(CCN3CCC(c4ccc5c(c4)C(=O)N(C4CCC(=O)NC4=O)C5=O)CC3)CC2)CC1 (centres unmarked) [Compound 103, 5-(1-(2-(1-(4-(4-amino-3-(4-phenoxyphenyl)-1H-pyrazolo[3,4-d]pyrimidin-1-yl)piperidine-1-carbonyl)piperidin-4-yl)ethyl)piperidin-4-yl)-2-(2,6-dioxopiperidin-3-yl)isoindoline-1,3-dione]	> 10 µM	1 to 10 µM
> 75%	> 0.05 µM	Nc1ncnc2c1c(-c1ccc(Oc3ccccc3)cc1)nn2C1CCN(C(=O)N2CCC(CCCN3CCN(c4ccc5c(c4)C(=O)N(C4CCC(=O)NC4=O)C5=O)CC3)CC2)CC1 (centres unmarked) [Compound 117, 5-(4-(3-(1-(4-(4-amino-3-(4-phenoxyphenyl)-1H-pyrazolo[3,4-d]pyrimidin-1-yl)piperidine-1-carbonyl)-piperidin-4-yl)propyl)piperazin-1-yl)-2-(2,6-dioxopiperidin-3-yl)isoindoline-1,3-dione]	1 to 10 µM	1 to 10 µM
